This passage reports inhibition and IC50 results from patent US20080194574A1, “Pyrazine Derivatives As Effective Compounds Against Infectious Diseases” (AXXIMA PHARMACEUTICALS AG, priority 2003, published 2008).

Read-outs that look alike come from different tables or passages of the source.

Assay [1] addresses SRPK1 (Homo sapiens, UniProt Q96SB4). Kind of assay: General kinase assay protocol (33P-ATP, MBP substrate, filter plate): SRPK1. It counts as biochemical. To be noted: inhibition at concentration 10 μM; read-out: Inhibitory effect on Target SRPK1. The protocol:
(§1) General Assay Protocol for all Kinases
(§2) (For UL97 a special UL97 kinase assay was used as described below.)
(§3) Final Assay Concentrations:
(§4) • 1) Add 8 μl 50 μM MBP in Reaction Buffer to each well of Assay Plate • 2) Add 10 μl 500 mM EDTA in H2O to C− wells • 3) Add 8 μl 62.5 μCi/ml Adenosine 5′-[γ-^33P]triphosphate+5 μM ATP in Reaction Buffer to each well • 4) Add 8 μl 5 fold concentrated inhibitor in 5% DMSO in Reaction Buffer to each well except to C− and C+ wells • 5) Add 8 μl 5% DMSO in Reaction Buffer to C− and C+wells • 6) Add 8 μl 5 fold concentrated kinase in Reaction Buffer to each well • 7) Incubate 1 hr at room temperature • 8) Add 10 μl 50 mM EDTA in H2O to each well except to C− wells • 9) Prepare MAPH plates by adding 200 μl 0.75% H3PO4 to each well • 10) Exhaust 0.75% H3PO4 using Millipore vacuum station • 11) Add 60 μl 0.75% H3PO4 to each well of MAPH Filter Plate • 12) Transfer 30 μl sample per well from Assay Plate to corresponding well of MAPH Filter Plate • 13) Incubate 30 min at room temperature • 14) Wash each well of MAPH Filter Plates 3× with 200 μl 0.75% H3PO4 using Millipore vacuum station • 15) Add 20 μl Szintilation Liquid to each well of MAPH Filter Plate • 16) Seal MAPH Filter Plate • 17) Store MAPH Filter Plate 30 min in darkness • 18) Quantify radioactivity

Assay [2] has as its target RICK (Homo sapiens, UniProt O43353). Kind of assay: General kinase assay protocol (33P-ATP, MBP substrate, filter plate): RICK. The class given is biochemical. To be noted: inhibition at concentration 10 μM; read-out: Inhibitory effect on Target RICK.
From the text: as §1, §2

Assay [3] deals with CDK9 (Homo sapiens, UniProt P50750). Kind of assay: General kinase assay protocol (33P-ATP, MBP substrate, filter plate): CDK9. The class given is biochemical. To be noted: inhibition at concentration 10 μM; read-out: Inhibitory effect on Target CDK9. The protocol: as §1, §2, §3, §4
Sequence of CDK9 (P50750 whole entry, species assumed): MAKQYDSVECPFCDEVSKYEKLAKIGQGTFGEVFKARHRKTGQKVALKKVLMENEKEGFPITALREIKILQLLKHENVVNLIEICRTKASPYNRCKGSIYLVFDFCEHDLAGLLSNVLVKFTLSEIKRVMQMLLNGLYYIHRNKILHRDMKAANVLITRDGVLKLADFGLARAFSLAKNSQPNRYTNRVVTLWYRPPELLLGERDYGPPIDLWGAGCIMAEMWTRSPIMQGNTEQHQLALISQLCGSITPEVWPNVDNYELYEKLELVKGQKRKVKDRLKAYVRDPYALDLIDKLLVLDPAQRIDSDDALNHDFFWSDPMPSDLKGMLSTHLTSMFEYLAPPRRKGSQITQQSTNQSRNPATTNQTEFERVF
Sequence of CDK9 (O60563 whole entry partner, species assumed): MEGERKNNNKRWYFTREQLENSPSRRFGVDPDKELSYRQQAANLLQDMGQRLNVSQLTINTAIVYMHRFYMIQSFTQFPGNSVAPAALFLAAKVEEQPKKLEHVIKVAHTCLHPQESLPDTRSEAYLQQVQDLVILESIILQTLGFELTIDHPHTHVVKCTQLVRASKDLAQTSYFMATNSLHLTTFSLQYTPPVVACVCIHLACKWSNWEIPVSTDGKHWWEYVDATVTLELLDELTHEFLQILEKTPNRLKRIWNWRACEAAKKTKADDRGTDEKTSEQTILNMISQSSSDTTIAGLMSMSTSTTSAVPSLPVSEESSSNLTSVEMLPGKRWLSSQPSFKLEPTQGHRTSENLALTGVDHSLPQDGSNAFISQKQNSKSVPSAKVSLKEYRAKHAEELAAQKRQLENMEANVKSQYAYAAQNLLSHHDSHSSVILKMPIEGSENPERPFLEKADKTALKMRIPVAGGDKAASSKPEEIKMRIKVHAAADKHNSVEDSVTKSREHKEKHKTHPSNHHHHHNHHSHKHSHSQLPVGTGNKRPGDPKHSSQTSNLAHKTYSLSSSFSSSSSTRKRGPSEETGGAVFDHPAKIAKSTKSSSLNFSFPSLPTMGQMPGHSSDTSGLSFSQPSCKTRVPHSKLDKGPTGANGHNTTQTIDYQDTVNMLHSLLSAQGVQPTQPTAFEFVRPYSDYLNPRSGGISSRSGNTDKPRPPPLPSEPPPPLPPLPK
Assay [4] deals with T1, viral kinase pUL-97 (Human cytomegalovirus, UniProt P16788).
T1 construct: The pUL-97 gene was cloned into a baculovirus vector; GST (glutathione S-transferase) (N); made in house; host or cells: Sf9 insect cells, baculovirus
T1 sequence (P16788 whole entry): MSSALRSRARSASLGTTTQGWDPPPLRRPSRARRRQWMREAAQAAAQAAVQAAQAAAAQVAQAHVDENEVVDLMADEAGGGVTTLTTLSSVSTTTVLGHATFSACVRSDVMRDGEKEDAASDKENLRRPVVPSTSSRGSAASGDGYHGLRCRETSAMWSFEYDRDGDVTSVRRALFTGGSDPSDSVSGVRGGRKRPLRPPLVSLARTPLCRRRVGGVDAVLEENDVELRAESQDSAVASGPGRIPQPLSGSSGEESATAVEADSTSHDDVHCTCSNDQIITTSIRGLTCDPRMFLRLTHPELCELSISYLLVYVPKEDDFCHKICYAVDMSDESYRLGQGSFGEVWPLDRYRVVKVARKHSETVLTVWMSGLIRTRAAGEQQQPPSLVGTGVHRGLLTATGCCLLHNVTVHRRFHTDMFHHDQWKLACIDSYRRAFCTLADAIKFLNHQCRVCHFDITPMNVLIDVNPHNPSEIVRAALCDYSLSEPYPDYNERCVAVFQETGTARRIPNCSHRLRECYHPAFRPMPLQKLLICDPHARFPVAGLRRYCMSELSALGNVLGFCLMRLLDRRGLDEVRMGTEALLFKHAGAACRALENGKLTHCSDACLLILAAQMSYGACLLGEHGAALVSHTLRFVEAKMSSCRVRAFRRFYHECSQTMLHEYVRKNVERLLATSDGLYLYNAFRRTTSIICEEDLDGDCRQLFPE
Kind of assay: UL97 kinase assay on Immobilon plate. The class given is biochemical. The procedure, abridged: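 GST-pUL97 from baculovirus-infected Sf9 cells phosphorylated myelin basic protein with ATP (3 μM in the added assay buffer) and γ-[33P]ATP in Tris-HCl pH 7.5 buffer with MnCl2 and DTT. Reaction ran 1 h at 30 °C with graded compound concentrations and was stopped with EDTA. 33P incorporation was measured by scintillation after filter capture and phosphoric acid washes.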

In assay [5] the test system is HCMV strain AD169. The assay is described as follows: HCMV replication assay (reporter gene) in human foreskin fibroblasts. The class given is cell-based, human cytomegalovirus. To be noted: Human betaherpesvirus 5; HCMV strain AD169 in HFF cells; read-out: IC50 in inhibiting replication of HCMV. The protocol:
To examine the effect of the pyrazine derivatives on HCMV replication, HCMV infections were performed in a cellular system.
Human foreskin fibroblasts (HFFs) were grown to subconfluency in 12 well plates and infected with 0.25 tissue culture infectious doses of HCMV AD-169 carrying a reporter gene (HCMV based antiviral assay). Pyrazine derivatives (stocks in DMSO (Dimethylsulfoxide)) were diluted in culture medium to the concentrations indicated and added to the cells immediately after virus adsorption. The success of infection (reporter gene expressing cells) and the lack of cytotoxicity of the compound (confluent cell layer) was monitored by microscopy. After seven days, cell layers were harvested, lysed and subjected to the automated fluorometry measurement of reporter gene activity. Each panel refers to a determination in quadruplicate (infection in duplicate, lysate preparation and measurement in duplicate).

Setting [6] is: inhibition of UL 97 kinase activity, class by IC50 / % inhibition at 10 or 100 μM, read-out: Activity Class [A, B, C].
Where [7] appears, read: inhibition of UL 97 kinase activity, class by IC50 / % inhibition at 10 μM or 100 μM, read-out: Activity Class [A, B, C].

Sequence of RICK (O43353 whole entry, species assumed): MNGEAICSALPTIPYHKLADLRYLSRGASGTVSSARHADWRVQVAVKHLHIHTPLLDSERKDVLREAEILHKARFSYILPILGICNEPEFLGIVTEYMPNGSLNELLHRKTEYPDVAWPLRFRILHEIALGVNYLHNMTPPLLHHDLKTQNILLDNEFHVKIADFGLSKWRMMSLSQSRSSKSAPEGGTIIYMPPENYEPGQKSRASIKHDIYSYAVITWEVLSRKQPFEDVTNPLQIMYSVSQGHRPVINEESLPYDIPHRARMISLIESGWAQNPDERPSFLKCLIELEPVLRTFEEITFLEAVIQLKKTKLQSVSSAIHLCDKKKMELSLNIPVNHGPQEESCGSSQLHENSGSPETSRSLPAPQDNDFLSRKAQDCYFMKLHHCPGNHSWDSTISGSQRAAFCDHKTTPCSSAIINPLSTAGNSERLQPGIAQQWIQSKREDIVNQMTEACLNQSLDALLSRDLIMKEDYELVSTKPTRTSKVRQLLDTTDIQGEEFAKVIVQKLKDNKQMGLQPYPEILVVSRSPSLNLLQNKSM
Sequence of SRPK1 (Q96SB4 whole entry, species assumed): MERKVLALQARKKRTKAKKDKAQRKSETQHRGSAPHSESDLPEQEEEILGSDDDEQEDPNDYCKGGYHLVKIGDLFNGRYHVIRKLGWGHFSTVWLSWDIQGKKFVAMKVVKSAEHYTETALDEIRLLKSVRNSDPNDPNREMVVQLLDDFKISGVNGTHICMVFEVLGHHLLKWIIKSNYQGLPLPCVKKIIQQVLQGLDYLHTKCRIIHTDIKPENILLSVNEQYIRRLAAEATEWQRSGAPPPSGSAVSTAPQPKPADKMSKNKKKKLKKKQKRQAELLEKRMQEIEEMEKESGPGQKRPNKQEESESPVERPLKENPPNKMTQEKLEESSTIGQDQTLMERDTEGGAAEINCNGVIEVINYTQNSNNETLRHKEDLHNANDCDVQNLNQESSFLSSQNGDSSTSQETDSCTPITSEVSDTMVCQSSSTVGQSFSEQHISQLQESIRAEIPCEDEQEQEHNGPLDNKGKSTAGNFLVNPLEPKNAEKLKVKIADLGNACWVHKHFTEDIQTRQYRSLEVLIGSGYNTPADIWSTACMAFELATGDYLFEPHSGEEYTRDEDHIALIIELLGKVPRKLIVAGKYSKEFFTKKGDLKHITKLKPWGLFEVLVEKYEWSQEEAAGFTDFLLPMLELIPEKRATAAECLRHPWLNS

As for `CC(=O)Nc1ccc(-c2cncc(Nc3ccccc3)n2)cc1` [Comp. 401], the inhibition at 10 µM in assay [1] is > 50%. Regarding `COc1cc(Nc2cncc(-c3ccc4ccccc4c3)n2)cc(OC)c1OC` [compound 402], the inhibition at 10 µM in assay [2] is > 75%. Regarding `CN(C)CCNC(=O)c1cccc(-c2cncc(Nc3ccc(Cl)cc3)n2)c1` [Comp. 381], the inhibition at 10 µM in assay [2] and in assay [3] was > 50% in each case.

On to `OCc1ccccc1-c1cncc(Nc2ccc(Cl)cc2)n1` [compound 420], for which the inhibition at 10 µM in assay [2] is > 50%. Take `Oc1ccc(-c2cncc(Nc3ccccc3)n2)cc1` [compound 386]: in assay [2], the inhibition at 10 µM was > 75%. For the compound `Nc1cccc(-c2cncc(Nc3ccc(Cl)cc3)n2)c1` [compound 380], the inhibition at 10 µM in assay [2] was > 50%. On to `Oc1ccc(-c2cncc(Nc3ccc(F)c(Cl)c3)n2)cc1` [Comp. 11], for which the inhibition at 10 µM in assay [2] is > 50%; in assay [3] it was > 75%. Also, the IC50 in assay [4] (setting [6]) is < 1 µM. Take `COc1cc(-c2cncc(Nc3ccc(F)c(Cl)c3)n2)cc(OC)c1OC` [compound 382]: the inhibition at 10 µM in assay [2] is > 50%. As for `COc1cc(Nc2cncc(-c3cccc(F)c3)n2)cc(OC)c1OC` [Comp. 7, [6-(3-Fluoro-phenyl)-pyrazin-2-yl]-(3,4,5-trimethoxy-phenyl)-amine], the inhibition at 10 µM in assay [2] was > 50%. The IC50 in assay [4] (setting [6]) is 1 to 10 µM.

`CC(=O)Nc1cccc(-c2cncc(Nc3ccc4c(c3)OC(F)(F)C(F)(F)O4)n2)c1` [compound 403]: in assay [3], the inhibition at 10 µM was > 50%. As for `COc1ccc(-c2cncc(Nc3cccc(C#N)c3)n2)cc1` [compound 388], the inhibition at 10 µM in assay [2] is > 50%. On the same count and under the same terms, for `Nc1ncc(-c2ccc(O)cc2)nc1Nc1ccc2[nH]ccc2c1` [compound 428] the value was > 50%. On to `Nc1nc(O)c2ncn(COC(CO)CO)c2n1` [ganciclovir], for which the IC50 in assay [5] was in the range of 3 to 4 µM.

`COc1cc(Nc2cncc(-c3ccc(N)cc3)n2)cc(OC)c1OC` [compound 398]: the inhibition at 10 µM in assay [2] is > 75%. The same measure, in the same setting: for `Oc1cccc(-c2cncc(Nc3ccc(F)c(Cl)c3)n2)c1` [compound 417] the value was > 50%. Turning to `Cc1ccc(Nc2cncc(-c3ccc(F)cc3F)n2)cc1NS(C)(=O)=O` [compound 410], the inhibition at 10 µM in assay [2] is > 50%. In the case of `COc1cc(Nc2cncc(-c3cccc(O)c3)n2)cc(OC)c1OC` [compound 423], the inhibition at 10 µM in assay [2] is > 50%. For `CN(C)c1cccc(-c2cncc(Nc3cccc(C#N)c3)n2)c1` [compound 391], in assay [2], the inhibition at 10 µM was > 50%.

For `COc1cccc(-c2cnc(N)c(Nc3ccc4[nH]ccc4c3)n2)c1` [compound 432], the inhibition at 10 µM in assay [2] was > 75%.

As to `CC(=O)Nc1ccc(-c2cncc(Nc3ccc(Cl)cc3)n2)cc1` [compound 397], the inhibition at 10 µM in assay [3] is > 50%. Regarding `CN(C)CCNC(=O)c1cccc(-c2cncc(Nc3ccc(C#N)c(Cl)c3)n2)c1` [Comp. 22, 3-[6-(3-Chloro-4-cyano-phenylamino)-pyrazin-2-yl]-N-(2-dimethylamino-ethyl)-benzamide], the inhibition at 10 µM in assay [1] is > 75%. In addition, in assay [4], the IC50 is < 1 µM. Regarding `Oc1ccc(-c2cncc(Nc3cccc(C(F)(F)F)c3)n2)cc1` [compound 29, 4-[6-(3-Trifluoromethyl-phenylamino)-pyrazin-2-yl]-phenol], in assay [2], the inhibition at 10 µM was > 50%. In addition, in assay [4] (setting [6]), the IC50 was < 1 µM. With `Fc1ccc(-c2cncc(N3CCN(c4ccccc4)CC3)n2)cc1` [compound 111, 6′-(4-Fluoro-phenyl)-4-phenyl-3,4,5,6-tetrahydro-2H-[1,2′]bipyrazinyl], the IC50 in assay [4] (setting [6]) fell in the range of 1 to 10 µM. Take `Fc1ccc(N2CCN(c3cncc(-c4ccoc4)n3)CC2)cc1` [compound 270, 4-(4-Fluoro-phenyl)-6′-furan-3-yl-3,4,5,6-tetrahydro-2H-[1,2′]bipyrazinyl]: the IC50 in assay [4] (setting [7]) is 10 to 100 µM. Turning to `Cc1cccc(N2CCN(c3cncc(-c4ccoc4)n3)CC2)c1C` [compound 346, 4-(2,3-Dimethyl-phenyl)-6′-furan-3-yl-3,4,5,6-tetrahydro-2H-[1,2′]bipyrazinyl], the IC50 in assay [4] (setting [7]) lay in the range of 10 to 100 µM.
